Tests used:
[1] = J. Pharm. Pharmacol. 1994, 46: 714-717; cited from earlier work
[2] = system: cutis of the back of female hairless mice; test: Cutis irritativeness, histology of back skin of hairless mice (Example 2); type: in vivo; details: 16 hours, light microscopy
Experimental: There was stuck 150 mg of TV-β-CyD, in the shape of a circle with a diameter of […], on the back of female hairless mice at the age of around 7 weeks (weight: […]), and 16 hours later, the cutis was extirpated. The extirpated cutis was fixed with 20% neutrally-buffered formalin solution and embedded in paraffin according to a usual manner, and tissue sections were prepared using a microtome. These sections were double stained with haematoxylin and Eosine, and observed by a light microscope. Untreated cutis was used as control. Moreover, a commercially available adhesive tape for patch test was applied on the same mice under the same condition, and, thereafter, the cutis tissue of the applied portion was extirpated for comparison.

[3] = Detaching force of films, probe tack tester (Example 1); type: physicochemical; details: films on polyethylene terephthalate; compared with HPC, HPMC and PHEMA; probe tack tester (FIG. 1)
Experimental: Pervaleryl-β-cyclodextrin (TV-β-CyD)-containing absolute ethanol solution (concentration: 150 mg/ml) was added dropwise onto a backing membrane (polyethylene terephthalate film) using a microsyringe, and allowed to stand at 25° C. for 24 hours to evaporate ethanol, whereby films of TV-β-CyD having adhesion were obtained.
The detaching force on the films of TV-β-CyD and on the films derived from various hydrophilic macromolecules (hydroxypropylcellulose (HPC), hydroxypropyl methylcellulose (HPMC) and polyhydroxyethyl methacrylate (PHEMA)) was measured using a probe tack tester (produced by Rigaku Kogyo Co.). The films of hydrophilic macromolecules were prepared as described with respect to TV-β-CyD.

SMILES | drug release rate, compared with other acylated β-CyDs [1] | peeling of corneum ([2]; 150 mg, compared with commercially available adhesive tape for patch test) | abnormality such as inflammatory cellular infiltration ([2]; other sites (control)) | adhesion (detaching force), in comparison with hydrophilic macromolecules [3]
CCCC(=O)OC[C@H]1O[C@@H]2O[C@H]3[C@H](OC(=O)CCC)[C@@H](OC(=O)CCC)[C@@H](O[C@H]4[C@H](OC(=O)CCC)[C@@H](OC(=O)CCC)[C@@H](O[C@H]5[C@H](OC(=O)CCC)[C@@H](OC(=O)CCC)[C@@H](O[C@H]6[C@H](OC(=O)CCC)[C@@H](OC(=O)CCC)[C@@H](O[C@H]7[C@H](OC(=O)CCC)[C@@H](OC(=O)CCC)[C@@H](O[C@H]8[C@H](OC(=O)CCC)[C@@H](OC(=O)CCC)[C@@H](O[C@H]1[C@H](OC(=O)CCC)[C@H]2OC(=O)CCC)O[C@@H]8COC(=O)CCC)O[C@@H]7COC(=O)CCC)O[C@@H]6COC(=O)CCC)O[C@@H]5COC(=O)CCC)O[C@@H]4COC(=O)CCC)O[C@@H]3COC(=O)CCC [TB-β-CyD, perbutanoyl-β-cyclodextrin] | remarkably retards the drug release rate |  |  | 
CCCCC(=O)OC[C@H]1O[C@@H]2O[C@H]3[C@H](OC(=O)CCCC)[C@@H](OC(=O)CCCC)[C@@H](O[C@H]4[C@H](OC(=O)CCCC)[C@@H](OC(=O)CCCC)[C@@H](O[C@H]5[C@H](OC(=O)CCCC)[C@@H](OC(=O)CCCC)[C@@H](O[C@H]6[C@H](OC(=O)CCCC)[C@@H](OC(=O)CCCC)[C@@H](O[C@H]7[C@H](OC(=O)CCCC)[C@@H](OC(=O)CCCC)[C@@H](O[C@H]8[C@H](OC(=O)CCCC)[C@@H](OC(=O)CCCC)[C@@H](O[C@H]1[C@H](OC(=O)CCCC)[C@H]2OC(=O)CCCC)O[C@@H]8COC(=O)CCCC)O[C@@H]7COC(=O)CCCC)O[C@@H]6COC(=O)CCCC)O[C@@H]5COC(=O)CCCC)O[C@@H]4COC(=O)CCCC)O[C@@H]3COC(=O)CCCC [TV-β-CyD, Pervaleryl-β-cyclodextrin] |  | peeling of corneum in the same degree as in the case of the commercially available adhesive tape | no abnormality such as inflammatory cellular infiltration | strongest in adhesion
